Several values for one entry are separate records, joined by “and”; a condition that tells them apart may be missing. Equal entries are not always repeated.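 All cell lines were grown in 96-well plates and treated with compound for 48 hours. Abbreviation: GI50, concentration required for 50% inhibition of growth. TGI: concentration producing complete growth inhibition.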
Columns and labels:
Experiment in all cases: NCI tumour cell line growth inhibition, 48 h
ACHN renal = tested on: ACHN renal
BT-549 breast = tested on: BT-549 breast
DLD-1 colon = tested on: DLD-1 colon
EKVX NSCLC = tested on: EKVX NSCLC
HL-60(TB) leukemia = tested on: HL-60(TB) leukemia
HOP-62 NSCLC = tested on: HOP-62 NSCLC
KM20L2 colon = tested on: KM20L2 colon
M14 melanoma = tested on: M14 melanoma
NCI-H226 lung = tested on: NCI-H226 lung
SW-620 colon = tested on: SW-620 colon

Compound | GI50 (ACHN renal) | TGI (ACHN renal) | GI50 (BT-549 breast) | TGI (BT-549 breast) | GI50 (DLD-1 colon) | TGI (DLD-1 colon) | GI50 (EKVX NSCLC) | TGI (EKVX NSCLC) | GI50 (HL-60(TB) leukemia) | TGI (HL-60(TB) leukemia) | GI50 (HOP-62 NSCLC) | TGI (HOP-62 NSCLC) | GI50 (KM20L2 colon) | TGI (KM20L2 colon) | GI50 (M14 melanoma) | TGI (M14 melanoma) | GI50 (NCI-H226 lung) | TGI (NCI-H226 lung) | GI50 (SW-620 colon) | TGI (SW-620 colon)
COc1nc(N)nc2nc[nH]c12 | 454 µM and 381 µM | 500 µM and 800 µM and > 1000 µM | 580 µM | 500 µM and > 1000 µM | 655 µM | 500 µM and 800 µM | 651 µM and > 759 µM | > 387 µM and 800 µM and > 1000 µM | 715 µM and 210 µM | 500 µM and 800 µM and > 1000 µM | 576 µM and 582 µM | 180 µM and 800 µM and > 923 µM | > 800 µM | > 800 µM | 772 µM and 585 µM | 500 µM and 800 µM and > 1000 µM | 400 µM and 380 µM | 458 µM and 800 µM and > 1000 µM | > 1000 µM | > 1000 µM
COc1ccc2cc3n(c(=O)c2c1)CCc1c-3cc(OC)c(OC)c1OC | – | > 100 µM | – | – | – | > 100 µM | – | > 100 µM | – | > 100 µM | – | > 100 µM | – | > 100 µM | – | > 100 µM | – | > 100 µM | – | > 100 µM
O=C1NC(=O)C2C3C=CC(C12)C1C2C(=O)NC(=O)C2C31 (stereo not given) | 766 µM | > 1000 µM | 313 µM | > 1000 µM | 39 µM | 250 µM | 543 µM | 250 µM and > 1000 µM | – | 206 µM and > 1000 µM | > 644 µM | – | – | 250 µM | > 973 µM | 250 µM and > 1000 µM | > 484 µM | 250 µM and > 762 µM | – | > 67.4 µM and 203 µM and > 1000 µM
COc1ccc(C(C)Nc2cc(OC)c(OC)c(OC)c2)cc1 (stereo not given) | – | > 100 µM | – | – | – | > 100 µM | – | > 100 µM | – | 5.81 µM | – | > 83.2 µM | – | 7.3 µM | – | > 100 µM | – | > 100 µM | – | > 100 µM
N#Cc1c(CC(=O)O)cc(=O)n2c1[nH]c1ccccc12 | – | > 100 µM | – | – | – | > 100 µM | – | > 100 µM | – | > 100 µM | – | > 100 µM | – | > 100 µM | – | > 100 µM | – | > 100 µM | – | > 100 µM
O=c1c2cc(Br)ccc2nc(CNc2ccccc2)n1-c1ccccc1 | – | > 49.9 µM | – | – | – | 21.6 µM | – | 40.7 µM | – | 39.7 µM | – | > 60.6 µM | – | > 100 µM | – | 47.6 µM | – | 43.9 µM | – | 27.5 µM
Cc1ccccc1NC(=O)CC(=O)NNCC(=O)Nc1nnc(-c2ccccc2)s1 | – | > 100 µM | – | – | – | > 100 µM | – | > 100 µM | – | 85.3 µM | – | > 100 µM | – | > 100 µM | – | > 100 µM | – | > 100 µM | – | > 100 µM
CN(C)c1ccc(/C=C2\CCc3ccccc3C2=O)cc1Br | – | > 100 µM | – | – | – | > 100 µM | – | > 100 µM | – | 58.5 µM | – | > 100 µM | – | > 100 µM | – | > 100 µM | – | > 100 µM | – | > 100 µM
